Measurements as given in patent US9181255B2, “Fused heteroaromatic pyrrolidinones as SYK inhibitors” (Takeda Pharmaceutical Company Limited, priority 2009, dated 2015).

What follows are molecules tested against SYK (Homo sapiens, UniProt P43405) (assay: SYK inhibition assay: SYK-mediated phosphorylation of FAM-labeled substrate (Caliper microfluidic)). Details: read-out: SYK Inhibition (pIC50) (converted).
Assay type: biochemical

Structure (SMILES) | IC50 [nM]
CC(C)C[C@@H](Nc1nc(-c2cncs2)c2c(c1F)CNC2=O)C(N)=O [Example 118, (R)-2-(7-Fluoro-3-oxo-4-(thiazol-5-yl)-2,3-dihydro-1H-pyrrolo[3,4-c]pyridin-6-ylamino)-4-methylpentanamide] | 12.6
CCOC[C@H](N)CNc1cc2c(c(Nc3cccc(C)c3)n1)C(=O)NC2 [Example 54, (R)-6-(2-Amino-3-ethoxypropylamino)-4-(m-tolylamino)-1H-pyrrolo[3,4-c]pyridin-3(2H)-one] | 251
Cn1cc(-c2nc(-c3cnn(C)c3)c3c(c2F)CNC3=O)cn1 [Example 98, 7-Fluoro-4,6-bis(1-methyl-1H-pyrazol-4-yl)-1H-pyrrolo[3,4-c]pyridin-3(2H)one] | 2000
CC(C)C[C@@H](Nc1nc(-c2cccs2)c2c(c1F)CNC2=O)C(N)=O [Example 126, (R)-2-(7-Fluoro-3-oxo-4-(thiophen-2-yl)-2,3-dihydro-1H-pyrrolo[3,4-c]pyridin-6-ylamino)-4-methylpentanamide] | 7.94
Cc1cccc(Nc2nc(N[C@@H]3CCCC(F)(F)[C@@H]3N)cc3c2C(=O)NC3)c1 (relative stereo) [Example 83, 6-(cis-2-Amino-3,3-difluorocyclohexylamino)-4-(m-tolylamino)-1H-pyrrolo[3,4-c]pyridin-3(2H)-one] | 251
N[C@H]1COCC[C@H]1Nc1nc(-c2cnn3ccccc23)c2c(c1F)CNC2=O [Example 92, 6-((3R,4R)-3-Aminotetrahydro-2H-pyran-4-ylamino)-7-fluoro-4-(pyrazolo[1,5-a]pyridin-3-yl)-1H-pyrrolo[3,4-c]pyridin-3(2H)-one] | 12.6
CC(C)C[C@@H](Nc1nc(-c2cnn(C(F)F)c2)c2c(c1F)CNC2=O)C(N)=O [Example 71, (R)-2-(4-(1-(Difluoromethyl)-1H-pyrazol-4-yl)-7-fluoro-3-oxo-2,3-dihydro-1H-pyrrolo[3,4-c]pyridin-6-ylamino)-4-methylpentanamide] | 7.94
COCCn1cc(-c2nc(N[C@@H]3CCCC[C@@H]3N)nc3c2C(=O)NC3)cn1 [Example 22, 2-((1R,2S)-2-Aminocyclohexylamino)-4-(1-(2-methoxyethyl)-1H-pyrazol-4-yl)-6,7-dihydro-5H-pyrrolo[3,4-d]pyrimidin-5-one] | 2000
N[C@H]1CCCC[C@H]1Nc1nc(-c2cccs2)c2c(c1F)CNC2=O [Example 129, 6-((1R,2S)-2-Aminocyclohexylamino)-7-fluoro-4-(thiophen-2-yl)-1H-pyrrolo[3,4-c]pyridin-3(2H)-one] | 3.98
COC[C@H](N)CNc1nc(-c2cnn(C)c2)c2c(c1F)CNC2=O [Example 101, (R)-6-(2-Amino-3-methoxypropylamino)-7-fluoro-4-(1-methyl-1H-pyrazol-4-yl)-1H-pyrrolo[3,4-c]pyridin-3(2H)-one] | 63.1
COC[C@H](N)CNc1cc2c(c(Nc3cccc(C)c3)n1)C(=O)NC2 [Example 77, (R)-6-(2-Amino-3-methoxypropylamino)-4-(m-tolylamino)-1H-pyrrolo[3,4-c]pyridin-3(2H)-one] | 31.6
CC(C)C[C@@H](Nc1nc(-c2cnn(C)c2)c2c(c1F)CNC2=O)C(N)=O [Example 70, (R)-2-(7-Fluoro-4-(1-methyl-1H-pyrazol-4-yl)-3-oxo-2,3-dihydro-1H-pyrrolo[3,4-c]pyridin-6-ylamino)-4-methylpentanamide] | 1.58
Cc1ccc(-c2nc(N[C@@H]3CCCC[C@@H]3N)c(F)c3c2C(=O)NC3)s1 [Example 108, 6-((1R,2S)-2-Aminocyclohexylamino)-7-fluoro-4-(5-methylthiophen-2-yl)-1H-pyrrolo[3,4-c]pyridin-3(2H)-one] | 2.51
N[C@H]1COCC[C@H]1Nc1nc(-c2cccs2)c2c(c1F)CNC2=O [Example 127, 6-((3R,4R)-3-Aminotetrahydro-2H-pyran-4-ylamino)-7-fluoro-4-(thiophen-2-yl)-1H-pyrrolo[3,4-c]pyridin-3(2H)-one] | 6.31
N[C@H]1CCCC[C@H]1Nc1nc2c(c(-c3ccccc3)n1)C(=O)NC2 [Example 16, 2-((1R,2S)-2-Aminocyclohexylamino)-4-phenyl-6,7-dihydro-5H-pyrrolo[3,4-d]pyrimidin-5-one] | 3160
Cc1ccc(-c2nc(N[C@H](CC(C)C)C(N)=O)c(F)c3c2C(=O)NC3)o1 [Example 115, (R)-2-(7-Fluoro-4-(5-methylfuran-2-yl)-3-oxo-2,3-dihydro-1H-pyrrolo[3,4-c]pyridin-6-ylamino)-4-methylpentanamide] | 316
CC(C)n1cc(-c2nc(N[C@@H]3CCCC[C@@H]3N)c(F)c3c2C(=O)NC3)cn1 [Example 97, 6-((1R,2S)-2-Aminocyclohexylamino)-7-fluoro-4-(1-isopropyl-1H-pyrazol-4-yl)-1H-pyrrolo[3,4-c]pyridin-3(2H)-one] | 158
CCn1cc(-c2nc(N[C@@H]3CCCC[C@@H]3N)nc3c2C(=O)NC3)cn1 [Example 18, 2-((1R,2S)-2-Aminocyclohexylamino)-4-(1-ethyl-1H-pyrazol-4-yl)-6,7-dihydro-5H-pyrrolo[3,4-d]pyrimidin-5-one] | 79.4

Structure (SMILES) | IC50 [nM]
Cn1cc(-c2nc(N[C@@H]3CCCC[C@@H]3N)c(Cl)c3c2C(=O)NC3)cn1 [Example 29, 6-((1R,2S)-2-Aminocyclohexylamino)-7-chloro-4-(1-methyl-1H-pyrazol-4-yl)-1H-pyrrolo[3,4-c]pyridin-3(2H)-one] | 3.16
CNC(=O)[C@@H](CC(C)C)Nc1nc(-c2cnn(C)c2)c2c(c1F)CNC2=O [Example 107, (R)-2-(7-Fluoro-4-(1-methyl-1H-pyrazol-4-yl)-3-oxo-2,3-dihydro-1H-pyrrolo[3,4-c]pyridin-6-ylamino)-N,4-dimethylpentanamide] | 501
CC(C)C[C@@H](Nc1nc(-c2cc(C#N)cs2)c2c(c1F)CNC2=O)C(N)=O [Example 117, (R)-2-(4-(4-Cyanothiophen-2-yl)-7-fluoro-3-oxo-2,3-dihydro-1H-pyrrolo[3,4-c]pyridin-6-ylamino)-4-methylpentanamide] | 12.6
Cc1cccc(Nc2nc(N3CCC(N)C3)nc3c2C(=O)NC3)c1 (stereo not drawn) [Example 45, 2-(3-Aminopyrrolidin-1-yl)-4-(m-tolylamino)-6,7-dihydro-5H-pyrrolo[3,4-d]pyrimidin-5-one] | 794
COC[C@H](N)CNc1cc2c(c(-c3cnn(C)c3)n1)C(=O)NC2 [Example 91, (R)-6-(2-Amino-3-methoxypropylamino)-4-(1-methyl-1H-pyrazol-4-yl)-1H-pyrrolo[3,4-c]pyridin-3(2H)-one] | 251
CC1NC(=O)c2c(-c3cnn(C)c3)nc(N[C@@H]3CCCC[C@@H]3N)c(F)c21 (stereo partly drawn) [Example 124, 6-((1R,2S)-2-Aminocyclohexylamino)-7-fluoro-1-methyl-4-(1-methyl-1H-pyrazol-4-yl)-1H-pyrrolo[3,4-c]pyridin-3(2H)-one] | 25.1
Cn1cc(-c2nc(N[C@@H]3CCOC[C@@H]3N)c(F)c3c2C(=O)NC3)cn1 [Example 65, 6-((3R,4R)-3-Aminotetrahydro-2H-pyran-4-ylamino)-7-fluoro-4-(1-methyl-1H-pyrazol-4-yl)-1H-pyrrolo[3,4-c]pyridin-3(2H)-one] | 10
CC(C)C[C@@H](Nc1cc2c(c(-c3cnn(C)c3)n1)C(=O)NC2)C(N)=O [Example 36, (R)-4-Methyl-2-(4-(1-methyl-1H-pyrazol-4-yl)-3-oxo-2,3-dihydro-1H-pyrrolo[3,4-c]pyridin-6-ylamino)pentanamide] | 25.1
CCn1cc(-c2nc(N[C@@H]3CCCC[C@@H]3N)cc3c2C(=O)NC3)cn1 [Example 59, 6-((1R,2S)-2-Aminocyclohexylamino)-4-(1-ethyl-1H-pyrazol-4-yl)-1H-pyrrolo[3,4-c]pyridin-3(2H)-one] | 79.4
Cc1csc(-c2nc(N[C@H](CC(C)C)C(N)=O)c(F)c3c2C(=O)NC3)c1 [Example 109, (R)-2-(7-Fluoro-4-(4-methylthiophen-2-yl)-3-oxo-2,3-dihydro-1H-pyrrolo[3,4-c]pyridin-6-ylamino)-4-methylpentanamide] | 3.16
CC(C)C[C@@H](Nc1nc(-c2cnn3ccccc23)c2c(c1F)CNC2=O)C(N)=O [Example 74, (R)-2-(7-Fluoro-3-oxo-4-(pyrazolo[1,5-a]pyridin-3-yl)-2,3-dihydro-1H-pyrrolo[3,4-c]pyridin-6-ylamino)-4-methylpentanamide] | 5.01
N[C@H]1CCCC[C@H]1Nc1nc2c(c(Nc3ccc4cn[nH]c4c3)n1)C(=O)NC2 [Example 4, 4-(1H-Indazol-6-ylamino)-2-((1R,2S)-2-aminocyclohexylamino)-6,7-dihydro-5H-pyrrolo[3,4-c]pyrimidin-5-one] | 15.8
Cn1cc(-c2nc(N3CC[C@H](N)C3)c(F)c3c2C(=O)NC3)cn1 [Example 95, (S)-6-(3-Aminopyrrolidin-1-yl)-7-fluoro-4-(1-methyl-1H-pyrazol-4-yl)-1H-pyrrolo[3,4-c]pyridin-3(2H)-one] | 3980
N[C@H]1CCCC[C@H]1Nc1cc2c(c(Nc3ccc4cn[nH]c4c3)n1)C(=O)NC2 [Example 23, 4-(1H-Indazol-6-ylamino)-6-((1R,2S)-2-aminocyclohexylamino)-1H-pyrrolo[3,4-c]pyridin-3(2H)-one] | 2
N[C@H]1CCCC[C@H]1Nc1nc(-c2cnn(C(F)F)c2)c2c(c1F)CNC2=O [Example 62, 6-((1R,2S)-2-Aminocyclohexylamino)-4-(1-(difluoromethyl)-1H-pyrazol-4-yl)-7-fluoro-1H-pyrrolo[3,4-c]pyridin-3(2H)-one] | 10
Cc1cccc(Nc2nc(N3CCCC(N)C3)nc3c2C(=O)NC3)c1 (stereo not drawn) [Example 12, 2-(3-Aminopiperidin-1-yl)-4-(m-tolylamino)-6,7-dihydro-5H-pyrrolo[3,4-d]pyrimidin-5-one] | 2000
N[C@H]1COCC[C@H]1Nc1nc(-c2coc3ccccc23)c2c(c1F)CNC2=O [Example 94, 6-((3R,4R)-3-Aminotetrahydro-2H-pyran-4-ylamino)-4-(benzofuran-3-yl)-7-fluoro-1H-pyrrolo[3,4-c]pyridin-3(2H)-one] | 3.16
N[C@H]1CCCC[C@H]1Nc1nc(-c2csc3ccccc23)c2c(c1F)CNC2=O [Example 52, 6-((1R,2S)-2-aminocyclohexylamino)-4-(benzo[b]thiophen-3-yl)-7-fluoro-1H-pyrrolo[3,4-c]pyridin-3(2H)-one] | 63.1
